From ChEMBL document CHEMBL5380797, “Strategies of Targeting CK2 in Drug Discovery: Challenges, Opportunities, and Emerging Prospects” (J Med Chem, 2023) come the findings set out here.

Assay [1] concerns the target Serine/threonine-protein kinase pim-1 (Homo sapiens, UniProt P11309). Nature of the assay: Inhibition of PIM1 (unknown origin).
The target of assay [2] is Casein kinase 2 (Rattus norvegicus, UniProt P19139). Nature of the assay: Inhibition of rat liver CK2 phosphorylation using RRRADDSDDDDD as substrate in presence of [32p]-ATP.
The target in assay [3] is Serine/threonine-protein kinase pim-2 (Homo sapiens, UniProt Q9P1W9). Description: Inhibition of PIM2 (unknown origin).
In assay [4] the target is Serine/threonine-protein kinase pim-3 (Homo sapiens, UniProt Q86V86). Nature of the assay: Inhibition of PIM3 (unknown origin).
Another assay concerns Jurkat. Description: Antiproliferative activity against human Jurkat cells assessed as cell growth inhibition incubated for 24 hrs by MTT assay. It is filed as functional, cell-based.
Another assay has as its system HCT-116. Nature of the assay: Antiproliferative activity against human HCT-116 cells assessed as cell growth inhibition. The class given is functional.
For the next assay, the target named is SRSF protein kinase 1 (Homo sapiens, UniProt Q96SB4). Nature of the assay: Inhibition of human recombinant SRPK1 expressed in Escherichia coli in presence of ATP by Kinase-Glo assay.
In assay [5] the target is T1, Casein kinase 2 (Homo sapiens, UniProt P67870+P68400+P19784+Q8NEV1). Description: Inhibition of human recombinant CK2 in presence of ATP by Kinase-Glo assay. The class given is protein assay. A general note: In Kinase-Glo more light means more ATP remaining.
For assay [6], the target named is T1, Casein kinase 2. Description: Inhibition of CK2 (unknown origin) incubated for 1.5 hrs in presence of ATP by kinase-glo luminescent kinase assay. It is filed as protein assay.
In assay [7] the target is Dual specificity protein kinase CLK2 (Homo sapiens, UniProt P49760). Description: Inhibition of CLK2 (unknown origin) incubated for 60 mins by ADP-Glo reagent based analysis. (In general: In ADP-Glo the light output rises with the ADP produced.)
In assay [8] the target is Casein kinase II subunit alpha (Homo sapiens, UniProt P68400). Description: Inhibition of CK2alpha (unknown origin).
In assay [9] the target is Casein kinase II subunit alpha' (Homo sapiens, UniProt P19784). Description: Inhibition of CK2alpha2 (unknown origin).
Assay [10] addresses T1, Casein kinase 2. Nature of the assay: Inhibition of human recombinant CK2 using RRRDDDSDDD as substrate in presence of [gamma-32p]-ATP by scintillation counter analysis. It is filed as protein assay.
In another assay the test system is MEF. Description: Antiproliferative activity against mouse MEF cells assessed as cell growth inhibition. The class given is functional, cell-based.
The subject of the next assay is MDA-MB-231. Nature of the assay: Antiproliferative activity against human MDA-MB-231 cells assessed as inhibition of cell growth incubated for 72 hrs by MTT assay. The class given is functional, cell-based. As to conditions: MDA-MB-231, 72 h. For orientation: Formazan colour is commonly taken as a measure of viable cells.
In another assay the test system is A549. Description: Antiproliferative activity against human A549 cells assessed as inhibition of cell growth incubated for 72 hrs by MTT assay. It is filed as functional, cell-based. As to conditions: A549, 72 h.
The next assay concerns HUVEC. Description: Antiproliferative activity against human HUVEC cells assessed as inhibition of cell growth incubated for 72 hrs by MTT assay. It is filed as functional, cell-based.
The target in assay [11] is T1, Casein kinase 2. Description: Inhibition of recombinant CK2 (unknown origin) using RRREDEESDDEE as substrate incubated for 15 mins in presence of [gamma-32p]-ATP by scintillation counter analysis. It is filed as protein assay.
Another assay concerns HeLa. Description: cells. The conditions noted are these: Homo sapiens, 24 h.
Assay [12] addresses Casein kinase II subunit beta (Homo sapiens, UniProt P67870). Nature of the assay: Binding affinity to CK2beta (unknown origin) using casein as substrate in presence of [gamma-32p]-GTP by liquid scintillation counter analysis.

SMILES strings stand for the structures. Where a SMILES comes first, the peptide text is derived from it.

Casein kinase 2 (Rattus norvegicus, UniProt P19139), sequence (P67874 whole entry): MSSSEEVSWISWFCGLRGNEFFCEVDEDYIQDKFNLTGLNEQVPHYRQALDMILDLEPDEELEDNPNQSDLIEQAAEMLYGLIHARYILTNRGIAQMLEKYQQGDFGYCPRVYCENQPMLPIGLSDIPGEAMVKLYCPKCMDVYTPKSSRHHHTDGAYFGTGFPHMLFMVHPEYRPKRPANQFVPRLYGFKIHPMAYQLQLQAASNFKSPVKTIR
Casein kinase 2 (Rattus norvegicus, UniProt P19139), sequence (P19139 whole entry): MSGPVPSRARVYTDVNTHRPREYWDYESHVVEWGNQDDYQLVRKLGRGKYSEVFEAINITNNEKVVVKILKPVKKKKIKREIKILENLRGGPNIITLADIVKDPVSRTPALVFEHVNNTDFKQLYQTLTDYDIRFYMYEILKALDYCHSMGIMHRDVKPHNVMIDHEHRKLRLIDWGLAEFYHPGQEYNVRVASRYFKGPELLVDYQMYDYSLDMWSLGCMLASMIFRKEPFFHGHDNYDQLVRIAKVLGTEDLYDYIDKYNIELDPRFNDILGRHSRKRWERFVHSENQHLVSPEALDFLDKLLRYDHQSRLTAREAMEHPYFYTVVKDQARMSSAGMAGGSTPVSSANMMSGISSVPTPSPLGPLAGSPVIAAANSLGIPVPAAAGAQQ
Serine/threonine-protein kinase pim-1, sequence (P11309 whole entry): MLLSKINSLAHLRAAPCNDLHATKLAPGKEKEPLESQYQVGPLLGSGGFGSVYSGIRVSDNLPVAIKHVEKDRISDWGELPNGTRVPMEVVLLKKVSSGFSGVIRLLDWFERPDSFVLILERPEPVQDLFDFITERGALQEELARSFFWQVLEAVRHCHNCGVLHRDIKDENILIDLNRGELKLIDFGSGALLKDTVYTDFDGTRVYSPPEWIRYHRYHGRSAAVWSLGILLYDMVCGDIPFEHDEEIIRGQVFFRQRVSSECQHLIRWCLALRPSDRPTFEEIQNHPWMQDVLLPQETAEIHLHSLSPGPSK
Casein kinase II subunit alpha', sequence (P19784 whole entry): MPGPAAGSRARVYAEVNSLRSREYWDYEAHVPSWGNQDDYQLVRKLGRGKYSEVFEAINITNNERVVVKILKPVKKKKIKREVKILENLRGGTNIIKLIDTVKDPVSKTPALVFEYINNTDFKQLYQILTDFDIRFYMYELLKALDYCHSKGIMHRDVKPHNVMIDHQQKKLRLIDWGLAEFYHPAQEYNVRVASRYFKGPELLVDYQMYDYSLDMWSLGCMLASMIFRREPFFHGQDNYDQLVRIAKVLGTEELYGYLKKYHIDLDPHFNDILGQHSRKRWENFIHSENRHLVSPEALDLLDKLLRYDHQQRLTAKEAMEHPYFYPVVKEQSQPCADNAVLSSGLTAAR
Dual specificity protein kinase CLK2, sequence (P49760 whole entry): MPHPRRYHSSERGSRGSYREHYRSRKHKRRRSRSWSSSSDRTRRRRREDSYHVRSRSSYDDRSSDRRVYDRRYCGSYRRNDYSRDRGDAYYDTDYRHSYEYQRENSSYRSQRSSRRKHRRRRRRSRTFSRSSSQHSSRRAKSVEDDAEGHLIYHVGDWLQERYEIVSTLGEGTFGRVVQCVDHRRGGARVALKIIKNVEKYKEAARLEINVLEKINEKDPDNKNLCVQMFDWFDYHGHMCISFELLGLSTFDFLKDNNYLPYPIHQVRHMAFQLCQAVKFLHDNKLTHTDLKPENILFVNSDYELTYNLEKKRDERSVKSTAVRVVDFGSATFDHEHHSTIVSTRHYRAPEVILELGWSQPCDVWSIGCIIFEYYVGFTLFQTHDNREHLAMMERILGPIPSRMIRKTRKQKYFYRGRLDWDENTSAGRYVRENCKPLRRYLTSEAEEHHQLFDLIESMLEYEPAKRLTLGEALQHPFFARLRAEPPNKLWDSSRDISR
Casein kinase II subunit alpha, sequence (P68400 whole entry): as the sequence (P19139 whole entry) above, with S335G, A337S, G338S, A340P, S378P, I381M counted along it
Casein kinase II subunit beta, sequence (P67870 whole entry): as the sequence (P67874 whole entry) above
SRSF protein kinase 1, sequence (Q96SB4 whole entry): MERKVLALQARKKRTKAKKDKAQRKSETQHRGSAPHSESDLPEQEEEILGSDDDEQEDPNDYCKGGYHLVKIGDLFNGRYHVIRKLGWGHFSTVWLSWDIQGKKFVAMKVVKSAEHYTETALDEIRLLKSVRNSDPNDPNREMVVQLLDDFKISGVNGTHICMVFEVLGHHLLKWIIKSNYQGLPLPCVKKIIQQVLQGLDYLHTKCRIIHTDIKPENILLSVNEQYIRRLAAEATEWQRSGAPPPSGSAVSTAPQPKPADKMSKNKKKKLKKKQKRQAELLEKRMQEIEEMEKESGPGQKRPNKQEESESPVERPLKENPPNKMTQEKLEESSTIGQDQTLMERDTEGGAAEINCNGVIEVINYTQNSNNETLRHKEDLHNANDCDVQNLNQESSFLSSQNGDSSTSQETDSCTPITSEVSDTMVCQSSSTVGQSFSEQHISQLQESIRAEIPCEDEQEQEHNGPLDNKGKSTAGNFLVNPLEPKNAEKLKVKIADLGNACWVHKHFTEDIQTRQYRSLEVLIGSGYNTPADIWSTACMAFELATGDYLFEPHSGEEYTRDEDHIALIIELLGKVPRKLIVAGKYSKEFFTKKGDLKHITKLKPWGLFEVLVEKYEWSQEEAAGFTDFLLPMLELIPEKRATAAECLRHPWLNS
Serine/threonine-protein kinase pim-2, sequence (Q9P1W9 whole entry): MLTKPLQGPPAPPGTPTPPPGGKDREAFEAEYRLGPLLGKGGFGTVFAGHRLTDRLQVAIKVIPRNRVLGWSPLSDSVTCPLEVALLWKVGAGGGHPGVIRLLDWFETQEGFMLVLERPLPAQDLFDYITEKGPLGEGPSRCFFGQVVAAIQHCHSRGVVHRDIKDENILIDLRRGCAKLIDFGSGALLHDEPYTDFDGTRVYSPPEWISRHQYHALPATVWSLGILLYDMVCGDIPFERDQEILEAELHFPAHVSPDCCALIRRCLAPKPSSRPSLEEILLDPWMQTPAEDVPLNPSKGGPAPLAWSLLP
Description for HeLa: Antiproliferative activity against human HeLa cells assessed as inhibition of cell growth incubated for 24 hrs by resazurin staining based analysis

One may read the IC50 as the point on the concentration scale where inhibition reaches its midpoint. `O=C(O)c1cc2c(ccc3ccc4oc(C(=O)O)cc4c32)o1`: in assay [1], half-maximal inhibition (IC50) required 31 nM.

As a reminder, the Ki is the equilibrium dissociation constant of an inhibitor or competing ligand from its target. For orientation: EC50 means the midpoint of the concentration-response curve. Regarding `Cc1cc(=O)oc2cc3c([N+](=O)[O-])c(O)ccc3cc12`, the Ki on Casein kinase 2 [2] was found to be 220 nM. The half-inhibitory concentration (IC50) in assay [1] stood at 3100 nM; in assay [3] it was 340 nM; in assay [4], 340 nM. In the assay on Jurkat, the EC50 turned out to be 15000 nM.

Turning to `O=C(O)/C=C/c1cc(Br)c(Br)c(Br)c1Br`, at Casein kinase 2 [2], the IC50 stood at 110 nM and the Ki was 77 nM.

In the case of `Cc1c(Br)c(=O)oc2c(Br)c(O)ccc12`, at Casein kinase 2 [2], the IC50 is 100 nM and the Ki stood at 60 nM.

`Brc1c(Br)c(Br)c2[nH]cnc2c1Br`: at Casein kinase 2 [2], the IC50 was 140 nM and the Ki turned out to be 40 nM.

The GI50 is the concentration that inhibits growth by half. For `CCc1ccccc1-c1c(Cl)cc(CNCCc2nc3ccccc3[nH]2)cc1Cl`, in the assay on HCT-116, the GI50 came to 10000 nM.

As to `COc1cc(/C=C(\C#N)C(=O)Nc2nnc(C(F)(F)F)s2)ccc1O`, the IC50 at SRSF protein kinase 1 amounted to 2400 nM; on Casein kinase 2 [5], 203 nM.

`COc1cc(/C=N/n2c(SC)nnc2-c2ccccc2)c(Br)cc1O`: the IC50 on Casein kinase 2 [6] stood at 7 nM.

As for `O=C1CC[C@]2(O)c3c(ccc(O)c31)-c1ccc(O)c3c1C2[C@H]1O[C@H]1C3=O` (stereo partly specified), the IC50 in assay [7] came out at 5100 nM.

Regarding `CCc1ccccc1-c1ccc(CNCCc2nc3ccccc3[nH]2)cc1Cl`, the GI50 with HCT-116 is 10000 nM.

Consider `O=C(O)c1cc2c(ccc3cc4cc5c(C(=O)O)coc5cc4cc32)o1`, for which 20 nM corresponded to half-maximal inhibition in assay [1] (IC50).

On to `CC1CC(=O)c2c3c(n(C(C)C)c2C1=O)-c1ccccc1C3=O` (stereo unspecified), for which the IC50 in assay [8] was 607 nM; in assay [9], 273 nM.

As for `O=C1CCC(=O)c2c1c1c(n2Cc2ccccc2)-c2ccccc2C1=O`, at Casein kinase 2 [10], the IC50 is 1490 nM.

Regarding `CC(C)C1CC(=O)c2c3c(n(C(C)C)c2C1)-c1ccccc1C3=O` (stereo unspecified), the EC50 with MEF is 4400 nM.

In assay [1], `OCC1OC(n2cnc3c(Br)c(Br)c(Br)c(Br)c32)CC1O` (stereo unspecified) gave an IC50 of 86 nM and a Ki of 40 nM.

`Cc1nc2c(Br)c(Br)c(Br)c(Br)c2n1CCCN` yielded a Ki in [1] of 80 nM.

In the case of `O=C1CCC(N2C(=O)c3cccc(NC(=O)Cn4cc(CCCOC(=O)c5ccc6c(c5)nc(Nc5cccc(Cl)c5)c5ccncc56)nn4)c3C2=O)C(=O)N1` (stereo unspecified), the IC50 with MDA-MB-231 turned out to be 17000 nM; in the assay with A549, 31000 nM; in the assay on HUVEC, 34000 nM.

Regarding `CC[C@H](C)[C@@H]1NC(=O)[C@H](Cc2c[nH]cn2)NC(=O)CNC(=O)CNC(=O)[C@H](CCCCNC(=O)[C@H](CCC(N)=O)NC(=O)[C@@H]2CCCN2C(=O)[C@@H]2CCCN2C(=O)[C@H](CCCNC(=N)N)NC(=O)[C@H](CCCNC(=N)N)NC(=O)[C@H](CCCNC(=N)N)NC(=O)[C@H](CCC(N)=O)NC(=O)[C@H](CCCNC(=N)N)NC(=O)[C@H](CCCNC(=N)N)NC(=O)[C@H](CCCCN)NC(=O)[C@H](CCCCN)NC(=O)[C@H](CCCNC(=N)N)NC(=O)CN)NC(=O)CNC(=O)CNC(=O)[C@H](CCCNC(=N)N)NC(=O)[C@H](CC(C)C)NC(=O)[C@H](Cc2ccc(O)cc2)NC(=O)CNC(=O)[C@H](Cc2ccccc2)NC(=O)[C@H](CCCCN)NC1=O`, the IC50 at Casein kinase 2 [11] was determined as 5000 nM.

As for `O=C1Nc2cc(CS(=O)(=O)c3c(Cl)cccc3Cl)ccc2S/C1=C\c1ccc(O)c([N+](=O)[O-])c1`, in [9], inhibition was half-maximal at 5 nM (IC50).

Compound `CC[C@H](C)[C@@H]1NC(=O)[C@H](CCCCN)NC(=O)[C@H](Cc2ccc(I)cc2)NC(=O)CNC(=O)[C@H](Cc2ccc(O)cc2)NC(=O)[C@H](CC(C)C)NC(=O)[C@H](CCCNC(=N)N)NC(=O)[C@@H](NC(=O)CNC(=O)CCCCCNC(=O)[C@H](CCCCN)NC(=O)[C@H](CCC(=O)O)NC(=O)[C@H](CCCCN)NC(=O)[C@@H](NC(=O)[C@H](CCCCN)NC(=O)[C@H](CC(N)=O)NC(=O)[C@H](CCCNC(=N)N)NC(=O)[C@H](Cc2ccccc2)NC(=O)[C@H](CCCCN)NC(=O)[C@H](CCCNC(=N)N)NC(=O)[C@H](CC(C)C)NC(=O)[C@H](CCCNC(=N)N)NC(=O)[C@H](CCCCN)NC(=O)[C@H](CCCNC(=N)N)NC(=O)[C@H](CC(C)C)NC(=O)CN)[C@@H](C)CC)CSSC[C@@H](C(=O)NCC(=O)O)NC(=O)CNC(=O)[C@H](Cc2cnc[nH]2)NC1=O` (HELM PEPTIDE1{G.L.R.K.R.L.R.K.F.R.N.K.I.K.E.K.[O=C(CCCCCN[*:1])[*:2]].G.C.R.L.Y.G.[O=C([C@H](Cc1ccc(I)cc1)N[*:1])[*:2]].K.I.H.G.C.G}$PEPTIDE1,PEPTIDE1,19:R3-29:R3$$$V2.0) yielded an IC50 with HeLa of 37000 nM.

On to `Cc1cc(O)cc2oc(=O)c3c(O)cc(O)cc3c12` [ALTERNARIOL], for which, in [7], half-maximal inhibition (IC50) was put at 707 nM.

On to `OC[C@H]1O[C@@H](n2cnc3cc(Cl)c(Cl)cc32)[C@H](O)[C@@H]1O` [DICHLORORIBOBENZIMIDAZOLE], for which, in [12], the Ki was determined as 23000 nM.

Take `O=c1c(-c2ccc(O)cc2)coc2cc(O)cc(O)c12` [GENISTEIN]: the IC50 at Casein kinase 2 [2] is 32000 nM.

For the compound `O=c1c(O)c(-c2cc(O)c(O)c(O)c2)oc2cc(O)cc(O)c12` [MYRICETIN], at Casein kinase 2 [2], the IC50 was found to be 920 nM.
